This note sets out measurements from PubChem BioAssay (NCI).

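A five-concentration, 48-hour dose response in 96-well plates underlies each endpoint, interpolated linearly between surrounding concentrations. At the TGI there is no net growth.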 A value given as a limit tells only on which side of the number the result lay.

Test systems include ACHN renal; CCRF-CEM leukemia; COLO 205 colon; HCC-2998 colon; IGROV1 ovarian; K-562 leukemia; MOLT-4 leukemia; NCI-H226 lung; NCI-H460 lung; NCI-H522 lung; OVCAR-5 ovarian; RPMI-8226 leukemia; SK-MEL-2 melanoma; SK-MEL-5 melanoma; SNB-19 CNS; SR leukemia; U251 CNS.
Holding throughout (assay): NCI tumour cell line growth inhibition, 48 h

As for `O/N=C/c1cc2c(cc1Br)OCO2`, the TGI in the experiment on ACHN renal, in the experiment on CCRF-CEM leukemia, with COLO 205 colon, in the experiment with HCC-2998 colon, in the experiment on IGROV1 ovarian and in the experiment with K-562 leukemia was more than 100 µM each time. Further, the TGI in the experiment with MOLT-4 leukemia, with NCI-H226 lung, in the experiment with NCI-H460 lung, in the experiment on NCI-H522 lung, in the experiment on OVCAR-5 ovarian and with RPMI-8226 leukemia was more than 100 µM in each case. Further, the TGI with SK-MEL-2 melanoma, in the experiment with SK-MEL-5 melanoma, with SNB-19 CNS, in the experiment with SR leukemia and in the experiment on U251 CNS was more than 100 µM in each case.

On to `COc1cc(Cl)cc(N(O)C(C)=O)c1OCc1ccccc1`, for which the TGI in the experiment on ACHN renal, in the experiment with CCRF-CEM leukemia, in the experiment with COLO 205 colon, in the experiment on HCC-2998 colon, in the experiment with IGROV1 ovarian and in the experiment on K-562 leukemia was more than 100 µM each time. Moreover, the TGI with MOLT-4 leukemia, in the experiment on NCI-H226 lung, with NCI-H460 lung, in the experiment on NCI-H522 lung, in the experiment with OVCAR-5 ovarian and in the experiment with RPMI-8226 leukemia was more than 100 µM throughout. The TGI in the experiment on SK-MEL-5 melanoma, in the experiment with SNB-19 CNS, in the experiment on SR leukemia and in the experiment with U251 CNS was more than 100 µM in each case.

For the compound `CCC(CC)n1cc(C(=O)NC(=O)NCCCCCOC(=O)CCCCCCCCCCC(=O)OCCCCCNC(=O)NC(=O)c2cn(C(CC)CC)c(=O)[nH]c2=O)c(=O)[nH]c1=O`, the TGI in the experiment on ACHN renal, with CCRF-CEM leukemia, in the experiment on COLO 205 colon, in the experiment on HCC-2998 colon, with IGROV1 ovarian and in the experiment with K-562 leukemia was more than 100 µM throughout. For the same compound, the TGI in the experiment on MOLT-4 leukemia, in the experiment with NCI-H226 lung, with NCI-H460 lung, in the experiment with NCI-H522 lung, in the experiment on OVCAR-5 ovarian and with RPMI-8226 leukemia was more than 100 µM each time. In addition, the TGI with SK-MEL-5 melanoma, in the experiment with SNB-19 CNS, in the experiment on SR leukemia and with U251 CNS was more than 100 µM each time.

Consider `C=CCN(N=O)C(=O)N(CCCC(NC(C)=O)C(=O)NCc1ccccc1)Cc1ccccc1` (centres undefined), for which the TGI in the experiment on ACHN renal was more than 100 µM; in the experiment on CCRF-CEM leukemia it was 95.6 µM; in the experiment on COLO 205 colon, more than 100 µM; in the experiment on IGROV1 ovarian, more than 100 µM; in the experiment with K-562 leukemia it was more than 100 µM; in the experiment on MOLT-4 leukemia it was 58.3 µM. The TGI was more than 100 µM with NCI-H460 lung; 84.8 µM in the experiment with NCI-H522 lung; more than 100 µM in the experiment with OVCAR-5 ovarian; 59.4 µM in the experiment with RPMI-8226 leukemia; more than 100 µM in the experiment with SK-MEL-2 melanoma; 93.8 µM with SK-MEL-5 melanoma. Moreover, the TGI with SNB-19 CNS and in the experiment with U251 CNS was more than 100 µM each time.

As for `CCn1c2ccccc2c2ccc3c(c21)C(=O)c1ccccc1C3=O`, the TGI in the experiment on ACHN renal, with CCRF-CEM leukemia, in the experiment with COLO 205 colon, with HCC-2998 colon, in the experiment with IGROV1 ovarian and in the experiment on K-562 leukemia was more than 100 µM in each case. Besides, the TGI in the experiment on MOLT-4 leukemia, in the experiment with NCI-H226 lung, in the experiment on NCI-H522 lung, in the experiment on RPMI-8226 leukemia, with SK-MEL-5 melanoma and in the experiment on SNB-19 CNS was more than 100 µM throughout. The TGI with SR leukemia and in the experiment on U251 CNS was more than 100 µM in each case.

Take `Cc1cccc(NC(=O)c2cc3cc(N=Nc4ccccc4Cl)ccc3oc2=O)c1`: the TGI with ACHN renal is more than 100 µM; in the experiment on CCRF-CEM leukemia it was more than 100 µM; in the experiment with COLO 205 colon it was more than 100 µM; in the experiment with HCC-2998 colon, 70.4 µM; in the experiment with IGROV1 ovarian it was more than 100 µM; with K-562 leukemia it was more than 100 µM. Further, the TGI in the experiment on MOLT-4 leukemia was more than 100 µM; with NCI-H226 lung, 56.2 µM; in the experiment on NCI-H460 lung, more than 100 µM; with NCI-H522 lung it was 56.8 µM; in the experiment on OVCAR-5 ovarian it was 56.8 µM; in the experiment with RPMI-8226 leukemia, more than 100 µM. Besides, the TGI is 47.1 µM in the experiment on SK-MEL-5 melanoma, more than 100 µM in the experiment with SNB-19 CNS and more than 100 µM in the experiment on U251 CNS.

Turning to `COC(=O)C1C2C=CC(C2)C1(C(=O)OC)S(=O)CC12CCC(CC1O)C2(C)C` (centres undefined), the TGI in the experiment with ACHN renal, in the experiment with CCRF-CEM leukemia, in the experiment with COLO 205 colon, in the experiment on HCC-2998 colon, with IGROV1 ovarian and with K-562 leukemia was more than 100 µM in each case. Also, the TGI with MOLT-4 leukemia, in the experiment on NCI-H226 lung, in the experiment on NCI-H460 lung, with NCI-H522 lung, in the experiment with OVCAR-5 ovarian and with RPMI-8226 leukemia was more than 100 µM each time. The TGI in the experiment with SK-MEL-2 melanoma is more than 100 µM; with SK-MEL-5 melanoma, more than 100 µM; in the experiment on SNB-19 CNS it was more than 100 µM; in the experiment on SR leukemia it was 63.1 µM; in the experiment with U251 CNS, more than 100 µM.

`COc1ccc(C(Cc2cc(OC)c(OC)c(OC)c2)C(=O)O)cc1` (centres undefined): the TGI in the experiment on ACHN renal, in the experiment on CCRF-CEM leukemia, in the experiment with COLO 205 colon, with HCC-2998 colon, in the experiment on IGROV1 ovarian and in the experiment on K-562 leukemia was more than 100 µM throughout. The TGI with NCI-H226 lung, with NCI-H460 lung, in the experiment with OVCAR-5 ovarian, in the experiment on RPMI-8226 leukemia, in the experiment on SK-MEL-2 melanoma and in the experiment with SK-MEL-5 melanoma was more than 100 µM in each case. Moreover, the TGI in the experiment on SNB-19 CNS and in the experiment with U251 CNS was more than 100 µM each time.

As for `COC(=O)C1=C(C(=O)OC)C2C(C)=CC(C)=CN2C(C#N)=C(SC)S1` (centres undefined), the TGI in the experiment on ACHN renal was determined as 60.5 µM; with CCRF-CEM leukemia, 56.5 µM; in the experiment on COLO 205 colon, 34.4 µM; in the experiment on HCC-2998 colon, 94.5 µM; in the experiment with K-562 leukemia, 55.3 µM; in the experiment with MOLT-4 leukemia it was 77.3 µM. For the same compound, the TGI is 39.9 µM with NCI-H226 lung; more than 100 µM with NCI-H460 lung; 46.7 µM in the experiment with NCI-H522 lung; 84.7 µM in the experiment with OVCAR-5 ovarian; 64.1 µM with RPMI-8226 leukemia; 45.8 µM with SK-MEL-2 melanoma. Further, the TGI is 30.7 µM in the experiment with SK-MEL-5 melanoma, more than 100 µM in the experiment on SNB-19 CNS, 50.5 µM with SR leukemia and more than 100 µM in the experiment on U251 CNS.
